The values below come from publication PMC4137035 (Bioorganic & medicinal chemistry letters, 2014).

The nature of data set [1]: Aqueous solubility measured by HPLC. It counts as physicochemical.
Another data set has as its system wild-type HIV-1 (IIIB). It counts as cell-based. The settings on record: selective index, CC50 vs EC50 IIIB.
The mark [2] stands for this setting: aqueous medium at pH 7.4 (buffer not named), pH 7.4.

Each structure is given as a SMILES string. ≈ marks a conversion by molar mass, not a printed value.

Usually solubility stands for the concentration that dissolves in the medium under given conditions. A higher solubility goes with a readily soluble substance. The compound `CC(=O)OCc1cc(N)c(Nc2ccc(C#N)cc2)cc1Oc1c(C)cc(CCC#N)cc1C` [12b] had a solubility in data set [1] (setting [2]) of under 1 µg/mL. The SI in the data set with wild-type HIV-1 (IIIB) is listed as 46,667.

`CC(=O)OCc1cc(N)c(Nc2ccc(C#N)cc2)cc1Oc1c(C)cc(/C=C/C#N)cc1C` [11b] yielded a solubility in data set [1] (setting [2]) of under 1 µg/mL. Further, in the data set on wild-type HIV-1 (IIIB), the SI was 117,439.

`Cc1cc(C#N)cc(C)c1Oc1cc(Nc2ccc(C#N)cc2)c(N)cc1CO` [7a] gave a solubility in data set [1] (setting [2]) of under 1 µg/mL. Besides, the SI in the data set with wild-type HIV-1 (IIIB) is 114,019.

Turning to `COCc1cc(N)c(Nc2ccc(C#N)cc2)cc1Oc1c(C)cc(C#N)cc1C` [7g], the solubility in data set [1] (setting [2]) was under 1 µg/mL.

`CC(=O)OCc1cc(N)c(Nc2ccc(C#N)cc2)cc1Oc1c(C)cc(C#N)cc1C` [7h] returned a solubility in data set [1] (setting [2]) of under 1 µg/mL.

For `COCc1cc(N)c(Nc2ccc(C#N)cc2)cc1Oc1c(C)cc(/C=C/C#N)cc1C` [11a], the solubility in data set [1] (setting [2]) is under 1 µg/mL. In the data set with wild-type HIV-1 (IIIB), the SI is 8,763.

As for `Cc1cc(C#N)cc(C)c1Oc1cc(Nc2ccc(C#N)cc2)c(N)cc1CNCCCO` [7d], the SI with wild-type HIV-1 (IIIB) is 2,475.

The compound `COCc1cc(N)c(Nc2ccc(C#N)cc2)cc1Oc1c(C)cc(CCC#N)cc1C` [12a] had a solubility in data set [1] (setting [2]) of under 1 µg/mL. Also, the SI in the data set with wild-type HIV-1 (IIIB) was >61,538.

In data set [1] (aqueous medium at pH 2.0 (buffer not named), pH 2), `Cc1cc(C#N)cc(C)c1Oc1cc(Nc2ccc(C#N)cc2)c(N)cc1CNC1CC1` [7c] showed a solubility of 285 µg/mL (≈ 673 µM). The SI in the data set on wild-type HIV-1 (IIIB) is 1,142.
